Test results as given in patent US8211941B2, “Antagonists of the transient receptor potential vanilloid 1 and uses thereof” (The Board of Regents of the University of Texas System, priority 2007, dated 2012).

How the values were obtained:
[1] = test system: Suncus murinus; conditions: subcutaneous; cited from earlier work
[2] = test system: ferrets; conditions: subcutaneous; cited from earlier work
[3] = test system: vagal afferent nerves (TRPV1) in the stomach; test: Nausea and vomiting induced by intravenous vasopressin infusion, behavioral emetic score; format: in vivo, dog; conditions: dogs, vasopressin 0.5 U/Kg iv over 20 minutes, one week after 250 ml of a 100 nM solution sprayed endoscopically; baseline 29.0±6.2; p=0.05
Procedure: (§1) Nausea and vomiting was induced using either balloon distention or intra-venous infusion of vasopressin (0.5 U/Kg infused over 20 minutes). Untreated represents control or baseline mean score of the emetic response was 26.3±4.0 and 29.0±6.2 for balloon distention and vasopressin stimuli respectively. Following, Resiniferatoxin infusion (250 ml of a 100 nM solution): the mean score with balloon distention was 11.7±4.2 (p=0.01) while the mean score with vasopressin was 16.3±5 (p=0.05).
(§2) Four dogs with surgically created jejunocutaneous fistulae 20 cm distal to the pylorus were used in this study. Nausea and vomiting were induced using two different stimuli, both of which are vagally dependent, at least in part: (1) Balloon inflation in the jejunum (2) Intravenous vasopressin infusion (0.5 U/Kg infused over 20 minutes). Nausea was assessed using a previously validated behavioral scoring system in addition to counting actual episodes of vomiting. After baseline observations, resiniferatoxin (250 ml of a 100 nM solution) was administered endoscopically using a spray catheter to coat the mucosal lining of the stomach under general anesthesia into the stomach. One week later, the response to balloon distention and vasopressin infusion was recorded again.

[4] = test system: dogs; conditions: subcutaneous; cited from earlier work
[5] = test system: vagal afferent nerves (TRPV1) in the stomach; test: Nausea and vomiting induced by balloon inflation in the jejunum, behavioral emetic score; format: in vivo, dog; conditions: dogs, one week after 250 ml of a 100 nM solution sprayed endoscopically onto gastric mucosa; baseline 26.3±4.0; p=0.01
Procedure: as §1, §2

[6] = General observation of dogs after endoscopic resiniferatoxin spray; format: in vivo, dog; conditions: after endoscopic gastric spray of 250 ml of a 100 nM solution
Procedure: as §2

[7] = test system: ferrets; conditions: subcutaneous; cited from earlier work; remark: listed apart in the source

## C=C(C)[C@]12C[C@@H](C)[C@@]34O[C@](Cc5ccccc5)(O[C@@H]1[C@@H]3C=C(COC(=O)Cc1ccc(O)c(OC)c1)C[C@]1(O)C(=O)C(C)=C[C@@H]41)O2 [Resiniferatoxin]
[1]
  emetic / anti-emetic properties: initial emetic followed by anti-emetic properties
[2]
  effect on copper sulphate, whole body radiation and Loperamide induced emetic response: blocked
[3]
  mean score of the emetic response with vasopressin: 16.3±5
[4]
  effect on acute and delayed cisplatin and apomorphine induced emesis: inhibited
[5]
  mean score of the emetic response with balloon distention: 11.7±4.2
[6]
  body weight change: minor weight loss
  general health of dogs: appeared healthy
[7]
  effect on acute and delayed cisplatin and apomorphine induced emesis: inhibited
